Results on six molecules are retold here after article PMC7916057.

The subject of series [1] is AS1411-N6 (biotin-labeled) (DNA, G4) GGTTGGGGTGGTGGTGGTTGTGGTGGTGGTGGCCAACC
In words: SPR. The conditions noted are these: K+ 140 mM; 10 mM phosphate, 25 °C; 1:1 affinity model.

Series [2] deals with AS1411 (biotin-labeled) (DNA, G4) GGTGGTGGTGGTTGTGGTGGTGGTGG
Briefly: SPR. The conditions noted are these: K+ 140 mM; 10 mM phosphate, 25 °C; 1:1 affinity model.

The test system of series [3] is AS1411 (DNA, G4) GGTGGTGGTGGTTGTGGTGGTGGTGG
Briefly: CD spectra. The settings on record: K+ 140 mM; 10 mM lithium cacodylate; ellipticity increase.

Series [4] relates to AS1411-N6 (FRET-labeled) (DNA, G4) GGTTGGGGTGGTGGTGGTTGTGGTGGTGGTGGCCAACC
In words: FRET melting. The settings on record: K+ 140 mM; 10 mM lithium cacodylate pH 7.2; ligand 4 eq., DNA 0.2 µM.

Series [5] concerns AS1411 (FRET-labeled) (DNA, G4) GGTGGTGGTGGTTGTGGTGGTGGTGG
In words: FRET melting. The conditions noted are these: K+ 140 mM; 10 mM lithium cacodylate pH 7.2; ligand 4 eq., DNA 0.2 µM.

The subject of series [6] is AS1411-N6 (DNA, G4) GGTTGGGGTGGTGGTGGTTGTGGTGGTGGTGGCCAACC
Briefly: CD melting (260 nm). The conditions noted are these: K+ 140 mM; 10 mM lithium cacodylate pH 7.2; ligand 4 eq., DNA 10 µM.

The test system is the same in series [7]. Briefly: 1H NMR titration (imino region). The conditions noted are these: 10 mM potassium phosphate pH 6.9, 10% D2O, 25 °C; duplex signals lost at 3 eq.
The test system is the same in series [8]. In words: CD spectra. The settings on record: K+ 140 mM, 10 mM lithium cacodylate.
Series [9] concerns AS1411 (DNA, G4) GGTGGTGGTGGTTGTGGTGGTGGTGG
Briefly: CD melting (260 nm). The settings on record: K+ 140 mM; 10 mM lithium cacodylate pH 7.2; ligand equivalents not given.

For series [10], the target named is T1, nucleolin RBD1,2 (NCL RBD 1,2) (UniProt P19338 307-466). In words: fluorescence titration; 360A; PAGE: 10 mM phosphate, 140 mM KCl, 20 uM DNA, 1:1(:1) ratio, 30 min; fluorescence titration buffer, pH and temperature not given in the material. The conditions noted are these: protein: recombinant; unlabelled in PAGE; stem-loop duplex plus G4; monomer major, dimer band also seen.
T1 sequence (P19338 307-466): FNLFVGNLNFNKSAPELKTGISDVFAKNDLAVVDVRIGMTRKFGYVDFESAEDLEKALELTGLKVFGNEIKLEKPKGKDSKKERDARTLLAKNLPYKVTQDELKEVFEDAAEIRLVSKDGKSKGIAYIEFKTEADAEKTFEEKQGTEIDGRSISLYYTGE

For series [11], the target named is T1, nucleolin RBD1,2 (NCL RBD 1,2). In words: fluorescence titration; TMPyP4; PAGE: 10 mM phosphate, 140 mM KCl, 20 uM DNA, 1:1(:1) ratio, 30 min; fluorescence titration buffer, pH and temperature not given in the material. The conditions noted are these: protein: recombinant; unlabelled in PAGE; stem-loop duplex plus G4; monomer major, dimer band also seen.
Series [12] shares this target. Briefly: fluorescence titration; PhenDC3; PAGE: 10 mM phosphate, 140 mM KCl, 20 uM DNA, 1:1(:1) ratio, 30 min; fluorescence titration buffer, pH and temperature not given in the material. The settings on record: protein: recombinant; unlabelled in PAGE; stem-loop duplex plus G4; monomer major, dimer band also seen.
Series [13] has the same target. In words: fluorescence titration; no ligand; PAGE: 10 mM phosphate, 140 mM KCl, 20 uM DNA, 1:1(:1) ratio, 30 min; fluorescence titration buffer, pH and temperature not given in the material. The settings on record: protein: recombinant; unlabelled in PAGE; stem-loop duplex plus G4; monomer major, dimer band also seen.

Where only a bound is given, the exact number is not on record here.

As usually defined, the KD is a measure of binding affinity in units of concentration. A word on the ΔTm: it is the change in melting temperature against a reference sample. `C[n+]1cc(NC(=O)c2cccc(C(=O)Nc3cc4ccccc4[n+](C)c3)n2)cc2ccccc21`: the results for the KD in [1] and in [2] were 38.2 ± 5.4 nM and 43.4 ± 8.47 nM, respectively. For the same molecule, the binding entry in series [3] and in series [7] was “yes” in each case. Moreover, the ΔTm is 20.16 ± 0.41 °C in series [4], 19.28 ± 0.99 °C in series [5] and above 30 °C in series [6].

For `CN(C)c1ccc(Nc2c3ccc(NC(=O)CCN4CCCC4)cc3nc3cc(NC(=O)CCN4CCCC4)ccc23)cc1`, the ΔTm worked out at 3.73 ± 0.09 °C in series [4] and 8.99 ± 0.79 °C in series [5].

As to `NCCOc1cc(C(=O)Nc2cc(OCCN)c3ccccc3n2)nc(C(=O)Nc2cc(OCCN)c3ccccc3n2)c1`, the ΔTm is 2.35 ± 0.44 °C in [4] and -0.75 ± 1.02 °C in series [5].

Turning to `C[n+]1ccc(-c2c3nc(c(-c4cc[n+](C)cc4)c4ccc([nH]4)c(-c4cc[n+](C)cc4)c4nc(c(-c5cc[n+](C)cc5)c5ccc2[nH]5)C=C4)C=C3)cc1`, the KD in [1] amounted to 264 ± 30 nM; in series [2], 115 ± 7.09 nM. Besides, the binding entry in series [8] (ellipticity increase) is reported as “yes”. The ΔTm in series [4] was 28.94 ± 0.23 °C; in series [5], 21.75 ± 1.08 °C; in series [9] it was ~ 25 °C.

`C[n+]1cc(NC(=O)c2ccc3ccc4ccc(C(=O)Nc5cc6ccccc6[n+](C)c5)nc4c3n2)cc2ccccc21`: the figures for the KD in [1] and in series [2] were 227 ± 54 nM and 344 ± 53.8 nM, respectively. Also, the binding result in series [8] (280 nm band lost at 3–4 eq.) and in [3] was “yes” throughout. Besides, the thermal shift (ΔTm) was found to be 22.89 ± 1.49 °C in series [4] and 24.77 ± 2.56 °C in [5].

B1: AS1411-N6 (structured_DNA)
DNA: GGTTGGGGTGGTGGTGGTTGTGGTGGTGGTGGCCAACC
Broadly, the Kd is the free concentration of one partner at which half of the binding sites on the other are occupied at equilibrium, for simple one-to-one binding. With B1, the dissociation constant (Kd) amounted to 700 ± 100 nM in series [10], 1100 ± 200 nM in [11], 1500 ± 300 nM in series [12] and 1000 ± 100 nM in series [13].
